{"source": "ChEMBL document CHEMBL2401638", "about": "“Design and synthesis of biquinolone-isoniazid hybrids as a new class of antitubercular and antimicrobial agents” (Eur J Med Chem, 2013)", "key": {"[1]": {"assay": "Cytotoxicity in Artemia cysts assessed as mortality of nauplii after 24 hrs", "assay_type": "organism-based", "details": "in vivo"}, "[2]": {"assay": "Cytotoxicity in Artemia cysts assessed as mortality of nauplii at 40 ug/mL after 24 hrs relative to control", "assay_type": "organism-based", "details": "in vivo"}, "[3]": {"assay": "Cytotoxicity in Artemia cysts assessed as mortality of nauplii at 50 ug/mL after 24 hrs relative to control", "assay_type": "organism-based", "details": "in vivo"}, "[4]": {"assay": "Cytotoxicity in Artemia cysts assessed as mortality of nauplii at 30 ug/mL after 24 hrs relative to control", "assay_type": "organism-based", "details": "in vivo"}, "[5]": {"assay": "Cytotoxicity in Artemia cysts assessed as mortality of nauplii at 20 ug/mL after 24 hrs relative to control", "assay_type": "organism-based", "details": "in vivo"}, "[6]": {"assay": "Cytotoxicity in Artemia cysts assessed as mortality of nauplii at 10 ug/mL after 24 hrs relative to control", "assay_type": "organism-based", "details": "in vivo"}, "[7]": {"assay": "Cytotoxicity in Artemia cysts assessed as mortality of nauplii at 5 ug/mL after 24 hrs relative to control", "assay_type": "organism-based", "details": "in vivo"}, "[8]": {"test_system": "Mycobacterium tuberculosis", "assay": "Antituberculosis activity against Mycobacterium tuberculosis H37Rv assessed as growth inhibition after 12 to 28 days by Lowenstein-Jensen method", "assay_type": "functional"}, "[9]": {"test_system": "Mycobacterium tuberculosis", "assay": "Antituberculosis activity against Mycobacterium tuberculosis H37Rv assessed as growth inhibition at 250 ug/ml after 12 to 28 days by Lowenstein-Jensen method relative to control", "assay_type": "functional", "details": "read-out: GI"}, "Trichophyton rubrum": {"test_system": "Trichophyton rubrum", "assay": "Antifungal activity against Trichophyton rubrum MTCC 296 assessed as growth inhibition by broth microdilution method", "assay_type": "functional"}, "Candida albicans": {"test_system": "Candida albicans", "assay": "Antifungal activity against Candida albicans MTCC 227 assessed as growth inhibition by broth microdilution method", "assay_type": "functional"}, "Pseudomonas aeruginosa": {"test_system": "Pseudomonas aeruginosa", "assay": "Antibacterial activity against Pseudomonas aeruginosa MTCC 1688 assessed as growth inhibition by broth microdilution method", "assay_type": "functional"}, "Salmonella typhi": {"test_system": "Salmonella typhi", "assay": "Antibacterial activity against Salmonella typhi MTCC 98 assessed as growth inhibition by broth microdilution method", "assay_type": "functional, Salmonella enterica subsp. enterica serovar Typhi", "details": "Salmonella enterica"}, "Clostridium tetani": {"test_system": "Clostridium tetani", "assay": "Antibacterial activity against Clostridium tetani MTCC 449 assessed as growth inhibition by broth microdilution method", "assay_type": "functional"}, "Escherichia coli": {"test_system": "Escherichia coli", "assay": "Antibacterial activity against Escherichia coli MTCC 443 assessed as growth inhibition by broth microdilution method", "assay_type": "functional"}, "Staphylococcus aureus": {"test_system": "Staphylococcus aureus", "assay": "Antibacterial activity against Staphylococcus aureus MTCC 96 assessed as growth inhibition by broth microdilution method", "assay_type": "functional"}, "Bacillus subtilis": {"test_system": "Bacillus subtilis", "assay": "Antibacterial activity against Bacillus subtilis MTCC 441 assessed as growth inhibition by broth microdilution method", "assay_type": "functional"}}}
{"molecule": "C=CCn1c(=O)c(C2C(C(=O)OCC)=C(N)N(NC(=O)c3ccncc3)C3=C2C(=O)CC(C)(C)C3)cc2cc(C)ccc21", "note": "(stereo not given)", "values": [{"measurement": "LC50 at 24 h", "setting": "[1]", "result": 28.6, "unit": "µg/mL"}, {"measurement": "mortality at 24 h, 40 ug/mL", "setting": "[2]", "result": 60, "unit": "%"}, {"measurement": "mortality at 24 h, 50 ug/mL", "setting": "[3]", "result": 80, "unit": "%"}, {"measurement": "mortality at 24 h, 30 ug/mL", "setting": "[4]", "result": 40, "unit": "%"}, {"measurement": "mortality at 24 h, 20 ug/mL", "setting": "[5]", "result": 30, "unit": "%"}, {"measurement": "mortality at 24 h, 10 ug/mL", "setting": "[6]", "result": 20, "unit": "%"}, {"measurement": "mortality at 24 h, 5 ug/mL", "setting": "[7]", "result": 0, "unit": "%"}, {"measurement": "MIC", "setting": "[8]", "result": 62.5, "unit": "µg/mL"}, {"measurement": "inhibition of growth at 250 µg/mL", "setting": "[9]", "result": 94, "unit": "%"}, {"measurement": "MIC", "setting": "Trichophyton rubrum", "result": 1000, "unit": "µg/mL"}, {"measurement": "MIC", "setting": "Candida albicans", "result": 500, "unit": "µg/mL"}, {"measurement": "MIC", "setting": "Pseudomonas aeruginosa", "result": 500, "unit": "µg/mL"}, {"measurement": "MIC", "setting": "Salmonella typhi", "result": 125, "unit": "µg/mL"}, {"measurement": "MIC", "setting": "Clostridium tetani", "result": 125, "unit": "µg/mL"}, {"measurement": "MIC", "setting": "Escherichia coli", "result": 62.5, "unit": "µg/mL"}, {"measurement": "MIC", "setting": "Staphylococcus aureus", "result": 125, "unit": "µg/mL"}, {"measurement": "MIC", "setting": "Bacillus subtilis", "result": 500, "unit": "µg/mL"}]}
{"molecule": "C=CCn1c(=O)c(C2C(C(=O)OC(C)C)=C(N)N(NC(=O)c3ccncc3)C3=C2C(=O)CC(C)(C)C3)cc2cc(Cl)ccc21", "note": "(stereo not given)", "values": [{"measurement": "LC50 at 24 h", "setting": "[1]", "result": 24.5, "unit": "µg/mL"}, {"measurement": "mortality at 24 h, 40 ug/mL", "setting": "[2]", "result": 70, "unit": "%"}, {"measurement": "mortality at 24 h, 50 ug/mL", "setting": "[3]", "result": 90, "unit": "%"}, {"measurement": "mortality at 24 h, 30 ug/mL", "setting": "[4]", "result": 50, "unit": "%"}, {"measurement": "mortality at 24 h, 20 ug/mL", "setting": "[5]", "result": 30, "unit": "%"}, {"measurement": "mortality at 24 h, 10 ug/mL", "setting": "[6]", "result": 10, "unit": "%"}, {"measurement": "mortality at 24 h, 5 ug/mL", "setting": "[7]", "result": 0, "unit": "%"}, {"measurement": "MIC", "setting": "[8]", "result": 62.5, "unit": "µg/mL"}, {"measurement": "inhibition of growth at 250 µg/mL", "setting": "[9]", "result": 94, "unit": "%"}, {"measurement": "MIC", "setting": "Trichophyton rubrum", "result": 500, "unit": "µg/mL"}, {"measurement": "MIC", "setting": "Candida albicans", "result": 1000, "unit": "µg/mL"}, {"measurement": "MIC", "setting": "Pseudomonas aeruginosa", "result": 500, "unit": "µg/mL"}, {"measurement": "MIC", "setting": "Salmonella typhi", "result": 125, "unit": "µg/mL"}, {"measurement": "MIC", "setting": "Clostridium tetani", "result": 125, "unit": "µg/mL"}, {"measurement": "MIC", "setting": "Escherichia coli", "result": 200, "unit": "µg/mL"}, {"measurement": "MIC", "setting": "Staphylococcus aureus", "result": 125, "unit": "µg/mL"}, {"measurement": "MIC", "setting": "Bacillus subtilis", "result": 500, "unit": "µg/mL"}]}
{"molecule": "C=CCn1c(=O)c(C2C(C(=O)OC(C)C)=C(N)N(NC(=O)c3ccncc3)C3=C2C(=O)CC(C)(C)C3)cc2cc(C)ccc21", "note": "(stereo not given)", "values": [{"measurement": "LC50 at 24 h", "setting": "[1]", "result": 35.4, "unit": "µg/mL"}, {"measurement": "mortality at 24 h, 40 ug/mL", "setting": "[2]", "result": 50, "unit": "%"}, {"measurement": "mortality at 24 h, 50 ug/mL", "setting": "[3]", "result": 70, "unit": "%"}, {"measurement": "mortality at 24 h, 30 ug/mL", "setting": "[4]", "result": 40, "unit": "%"}, {"measurement": "mortality at 24 h, 20 ug/mL", "setting": "[5]", "result": 30, "unit": "%"}, {"measurement": "mortality at 24 h, 10 ug/mL", "setting": "[6]", "result": 10, "unit": "%"}, {"measurement": "mortality at 24 h, 5 ug/mL", "setting": "[7]", "result": 0, "unit": "%"}, {"measurement": "MIC", "setting": "[8]", "result": 12.5, "unit": "µg/mL"}, {"measurement": "inhibition of growth at 250 µg/mL", "setting": "[9]", "result": 99, "unit": "%"}, {"measurement": "MIC", "setting": "Trichophyton rubrum", "result": 1000, "unit": "µg/mL"}, {"measurement": "MIC", "setting": "Candida albicans", "result": 500, "unit": "µg/mL"}, {"measurement": "MIC", "setting": "Pseudomonas aeruginosa", "result": 200, "unit": "µg/mL"}, {"measurement": "MIC", "setting": "Salmonella typhi", "result": 200, "unit": "µg/mL"}, {"measurement": "MIC", "setting": "Clostridium tetani", "result": 500, "unit": "µg/mL"}, {"measurement": "MIC", "setting": "Escherichia coli", "result": 125, "unit": "µg/mL"}, {"measurement": "MIC", "setting": "Staphylococcus aureus", "result": 500, "unit": "µg/mL"}, {"measurement": "MIC", "setting": "Bacillus subtilis", "result": 500, "unit": "µg/mL"}]}
{"molecule": "C=CCn1c(=O)c(C2C(C(=O)OC)=C(N)N(NC(=O)c3ccncc3)C3=C2C(=O)CC(C)(C)C3)cc2cc(C)ccc21", "note": "(stereo not given)", "values": [{"measurement": "LC50 at 24 h", "setting": "[1]", "result": 34.6, "unit": "µg/mL"}, {"measurement": "mortality at 24 h, 40 ug/mL", "setting": "[2]", "result": 60, "unit": "%"}, {"measurement": "mortality at 24 h, 50 ug/mL", "setting": "[3]", "result": 70, "unit": "%"}, {"measurement": "mortality at 24 h, 30 ug/mL", "setting": "[4]", "result": 40, "unit": "%"}, {"measurement": "mortality at 24 h, 20 ug/mL", "setting": "[5]", "result": 20, "unit": "%"}, {"measurement": "mortality at 24 h, 10 ug/mL", "setting": "[6]", "result": 10, "unit": "%"}, {"measurement": "mortality at 24 h, 5 ug/mL", "setting": "[7]", "result": 0, "unit": "%"}, {"measurement": "MIC", "setting": "[8]", "result": 25, "unit": "µg/mL"}, {"measurement": "inhibition of growth at 250 µg/mL", "setting": "[9]", "result": 99, "unit": "%"}, {"measurement": "MIC", "setting": "Trichophyton rubrum", "result": "> 1000", "unit": "µg/mL"}, {"measurement": "MIC", "setting": "Candida albicans", "result": 500, "unit": "µg/mL"}, {"measurement": "MIC", "setting": "Pseudomonas aeruginosa", "result": 250, "unit": "µg/mL"}, {"measurement": "MIC", "setting": "Salmonella typhi", "result": 100, "unit": "µg/mL"}, {"measurement": "MIC", "setting": "Clostridium tetani", "result": 500, "unit": "µg/mL"}, {"measurement": "MIC", "setting": "Escherichia coli", "result": 125, "unit": "µg/mL"}, {"measurement": "MIC", "setting": "Staphylococcus aureus", "result": 500, "unit": "µg/mL"}, {"measurement": "MIC", "setting": "Bacillus subtilis", "result": 200, "unit": "µg/mL"}]}
{"molecule": "C=CCn1c(=O)c(C2C(C(=O)OCC)=C(N)N(NC(=O)c3ccncc3)C3=C2C(=O)CC(C)(C)C3)cc2cc(OC)ccc21", "note": "(stereo not given)", "values": [{"measurement": "LC50 at 24 h", "setting": "[1]", "result": 26.6, "unit": "µg/mL"}, {"measurement": "mortality at 24 h, 40 ug/mL", "setting": "[2]", "result": 60, "unit": "%"}, {"measurement": "mortality at 24 h, 50 ug/mL", "setting": "[3]", "result": 80, "unit": "%"}, {"measurement": "mortality at 24 h, 30 ug/mL", "setting": "[4]", "result": 50, "unit": "%"}, {"measurement": "mortality at 24 h, 20 ug/mL", "setting": "[5]", "result": 30, "unit": "%"}, {"measurement": "mortality at 24 h, 10 ug/mL", "setting": "[6]", "result": 20, "unit": "%"}, {"measurement": "mortality at 24 h, 5 ug/mL", "setting": "[7]", "result": 10, "unit": "%"}, {"measurement": "MIC", "setting": "[8]", "result": 100, "unit": "µg/mL"}, {"measurement": "inhibition of growth at 250 µg/mL", "setting": "[9]", "result": 96, "unit": "%"}, {"measurement": "MIC", "setting": "Trichophyton rubrum", "result": 1000, "unit": "µg/mL"}, {"measurement": "MIC", "setting": "Candida albicans", "result": 500, "unit": "µg/mL"}, {"measurement": "MIC", "setting": "Pseudomonas aeruginosa", "result": 125, "unit": "µg/mL"}, {"measurement": "MIC", "setting": "Salmonella typhi", "result": 125, "unit": "µg/mL"}, {"measurement": "MIC", "setting": "Clostridium tetani", "result": 250, "unit": "µg/mL"}, {"measurement": "MIC", "setting": "Escherichia coli", "result": 250, "unit": "µg/mL"}, {"measurement": "MIC", "setting": "Staphylococcus aureus", "result": 200, "unit": "µg/mL"}, {"measurement": "MIC", "setting": "Bacillus subtilis", "result": 125, "unit": "µg/mL"}]}
